Tests used:
[1] = type: in vitro ADME; conditions: human, 25 μg/ml
Experimental: The studies were performed using human cadaver full skin (thickness of 0.75 mm) obtained from the region of the thorax of 40–60 years old donors. The study was reviewed and approved by the Independent Bioethics Commission for Research of the Medical University of Gdansk (number NKBBN/120-41/2014). Before the experiment, the skin was stored frozen at -20 °C. The preparations were applied as an infinite dose (0.5 ml mangiferin solution at concentration of 25 μg/ml) on the surface of the skin placed in the flow-through Teflon® diffusion chamber (Crown Glass, USA), and left for 24 h. The diffusion area of the skin was 0.65 cm^2. The donor compartment of the chamber remained occluded, and the system was maintained at the temperature 37°C ± 0.5°C. Saline solution, 20 ml, preserved with 0.005% sodium azide (Fluka, Buchs, Switzerland) was recirculated beneath the skin with a constant rate of 10 ml/h. Acceptor fluid ensured the sink condition. After the penetrants were removed from the skin, the stratum corneum was separated by tape-stripping method, using 30 fragments of an adhesive tape (3M Medica Pharma, St. Paul, MN, USA). The following parameters were employed: pressure about 1 kg/cm^2 (applied by stamp), 2 s duration of pressure, and a rapid removal rate at an angle of 45^o. The skin layers were isolated by the heat separation technique. […]

[2] = target: Collagenase from Clostridium histolyticum; experiment: Spectrophotometric collagenase assay with FALGPA as substrate; type: biochemical
Experimental: A spectrophotometric collagenase assay was performed as previously described, with N-[3- (2-Furyl) acryloyl]- Leu- Gly- Pro-Ala (FALGPA) as the substrate. […] The reaction mixtures were preincubated with mangiferin solutions for 15 minutes at room temperature. The addition of FALGPA started the reaction. Changes in product formation were recorded every 20 seconds for 20 minutes in the absorbance λ = 335 nm with the use of the Epoch (BioTek System) spectrophotometer in 96-well plates (BIOCOM SYSTEMS). Oleanolic acid was used as a control. The kinetic parameters Vo, Km and Vmax were calculated according to Michaelis-Menten and Lineweaver-Burk plots and analyzed in the GraphPad prism program and Excel.
As stated by the data supplier: 1U of collagenase hydrolyses […] FALGPA/min at pH 7.5 and 25°C, in the presence of calcium ions.

[3] = design: method as in ref 21 = [21]; 21 Nuñez-Selles AJ . Antioxidant therapy: myth or reality? J Braz Chem Soc . 2005; 16 : 699 – 710 .; conditions: cited from earlier work
rats = conditions: 2 g/kg; cited from earlier work
[4] = target: porcine pancreatic elastase (Sus scrofa, UniProt P00772); experiment: Spectrophotometric elastase assay with SANA as substrate; type: biochemical
Sequence of porcine pancreatic elastase (P00772 27-266): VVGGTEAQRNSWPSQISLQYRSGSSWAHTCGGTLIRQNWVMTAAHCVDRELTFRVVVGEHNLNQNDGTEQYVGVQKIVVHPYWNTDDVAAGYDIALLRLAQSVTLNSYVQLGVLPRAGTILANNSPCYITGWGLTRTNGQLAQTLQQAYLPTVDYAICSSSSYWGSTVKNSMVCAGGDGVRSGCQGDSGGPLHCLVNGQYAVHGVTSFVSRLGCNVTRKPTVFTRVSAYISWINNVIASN
Experimental: A spectrophotometric elastase assay was performed as previously described [25], with N-Succ-(-Ala)3-p-nitroanilide (SANA) as the substrate. […] The addition of SANA started the reaction. Changes in product formation: p-nitroaniline was recorded every 20 seconds for 20 minutes in the absorbance λ = 410 nm with the use of the Epoch (BioTek System) spectrophotometer in 96-well plates (BIOCOM SYSTEMS). The oleanolic acid was used as a control [26]. Kinetic parameters Vo, Km and Vmax were calculated according to Michaelis-Menten and Lineweaver-Burk plots and analyzed in the GraphPad prism program and Excel.
As stated by the data supplier: 1U elastase hydrolyses 1 μM SANA/min at pH 8 and 25°C. The molar absorption coefficient of p-nitroaniline is 9800 M^–1 cm^–1.

[5] = tested on: human cervix adenocarcinoma cell line (HeLa); design: method as in PMID 24633329; conditions: cited from earlier work
mice = conditions: 2 g/kg; cited from earlier work
[6] = tested on: human acute myeloid leukemia cell line HL-60; design: method as in PMID 21547680; conditions: cited from earlier work
[7] = design: method as in ref 18 = [18]; 18 Acosta J , Sevilla I , Salomón S , Nuevas L , Romero A , Amaro D . Determination of mangiferin solubility in solvents used in the biopharmaceutical industry . Pharm Pharmacogn Res . 2016; 4 ( 2 ):; conditions: cited from earlier work

O=c1c2cc(O)c(O)cc2oc2cc(O)c([C@@H]3O[C@H](CO)[C@@H](O)[C@H](O)[C@H]3O)c(O)c12 [mangiferin, 2-C-β-D-glucopyranosyl-1,3,6,7-tetrahydroxyxanthone]
amount permeated through the skin from ethanol solution relative to water solution [1]: about 2 fold | concentration in the acceptor fluid after 24 hours relative to after 2 hours [1]: about 2 fold | IC50 ([2]; FALGPA 0.8 mM, pH 7.5, 15 min preincubation, read-out: concentration leading to a 50% loss of collagenase activity (IC50)): 254 ± 7.56 µM | concentrations that inactivated collagenase almost completely ([2]; FALGPA substrate): above 500 μM | type of collagenase inhibition ([2]; Lineweaver-Burk plots): noncompetitive | reversibility of collagenase inhibition ([2]; activity vs enzyme concentration plots): reversible | potency on collagenase relative to oleanolic acid (fold lower) ([2]; vs reference oleanolic acid): 4.9 fold | log P [3]: 2.73 | dermal acute toxicity (rats): did not show toxic effects | type of elastase inhibition ([4]; Lineweaver-Burk plots, 0, 59, 118 and 177 μM): noncompetitive | IC50 ([4]; SANA 0.8 mM, pH 8, 15 min preincubation, read-out: concentration leading to a 50% loss of elastase activity (IC50)): 140 ± 9.34 µM | concentrations that inactivated elastase almost completely ([4]; SANA substrate): above 473 μM | reversibility of elastase inhibition ([4]; activity vs enzyme concentration plots, 0, 59, 118 and 177 μM): reversible | potency on elastase relative to oleanolic acid (fold lower) ([4]; vs reference oleanolic acid): 4.2 fold | effect on apoptotic effects of hesperidin in HeLa cells [5]: enhanced apoptotic effects of hesperidin | dermal acute toxicity (mice): did not show toxic effects | apoptosis in HL-60 cells [6]: induce apoptosis | solubility in ethanol ([7]; ethanol): slightly soluble | solubility in nonpolar solvents ([7]; some nonpolar solvents (e.g. n-hexane, diethyl ether)): practically insoluble | solubility in water ([7]; water): sparingly soluble

Reference: article PMC5531637, “The effect of mangiferin on skin: Penetration, permeation and inhibition of ECM enzymes” (PLoS ONE, 2017)
